Experimental data reported in patent US9586931B2 (Merck Sharp & Dohme Corp., priority 2012, dated 2017).

The compounds below were run against T1, recombinant human GST-Syk (Homo sapiens, UniProt P43405) (assay: Homogeneous Time-Resolved Fluorescence (HTRF) assay for the recombinant human Syk enzyme). Details: recombinant human GST-Syk 5 pM, ATP 25 μM, 10-dose titration 10 μM to 0.508 nM; read-out: rhSYK Activity IC50.
T1 construct: purchased Carna Biosciences 08-176
Type: biochemical
Method in brief: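 GST-hSyk fusion protein phosphorylated a peptide for 45 min at room temperature. The reaction was quenched with 2 nM Eu-anti-phosphotyrosine antibody and 70 nM SA-APC in 15 mM Tris pH 7.5, 40 mM EDTA, 0.01% Tween 20. The HTRF signal was read after 30 min.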

| IC50 [nM] | SMILES |
| --- | --- |
| 20.1 | Cc1cc(Nc2cc(C)c(Cl)cn2)nc(-c2cn(CC(C)(O)C(C)(C)O)nn2)c1 (stereo not drawn) [Example 21.10, 1-(4-{6-[(5-chloro-4-methylpyridin-2-yl)amino]-4-methylpyridin-2-yl}-1H-1,2,3-triazol-1-yl)-2,3-dimethylbutane-2,3-diol] |
| 14.9 | Cc1cc(Nc2cc(C(F)(F)F)ccn2)nc(-c2cn(C[C@H](O)C(=O)O)nn2)c1 [Example 4.19, (2S)-2-hydroxy-3-[4-(4-methyl-6-{[4-(trifluoromethyl)pyridin-2-yl]amino}pyridin-2-yl)-1H-1,2,3-triazol-1-yl]propanoic acid] |
| 7.1 | Cc1cc(Nc2cc(C(F)(F)F)ccn2)nc(-c2cn(C(CO)c3ccccc3)nn2)c1 (stereo not drawn) [Example 13.8, 2-[4-(4-methyl-6-{[4-(trifluoromethyl)pyridin-2-yl]amino}pyridin-2-yl)-1H-1,2,3-triazol-1-yl]-2-phenylethanol] |
| 9 | Cc1cc(Nc2cc(C(F)F)ccn2)nc(-c2cn(CC(C)(O)CC#N)nn2)c1 (single isomer, unassigned) [Example 23.2, 4-(4-(6-((4-(difluoromethyl)pyridin-2-yl)amino)-4-methylpyridin-2-yl)-1H-1,2,3-triazol-1-yl)-3-hydroxy-3-methylbutanenitrile] |
| 171 | Cc1cc(Nc2cc(C(F)(F)F)ccn2)nc(-c2cn(C(C)C(=O)NC(C)c3cnn(-c4ccccc4F)c3)nn2)c1 (stereo not drawn) [Example 1.35, N-{1-[1-(2-fluorophenyl)-1H-pyrazol-4-yl]ethyl}-2-[4-(4-methyl-6-{[4-(trifluoromethyl)pyridin-2-yl]amino}pyridin-2-yl)-1H-1,2,3-triazol-1-yl]propanamide] |
| 6.8 | Cc1cc(Nc2cc(C(F)(F)F)ccn2)nc(-c2cn([C@H](C)C(N)=O)nn2)c1 [Example 1.23, (2R)-2-[4-(4-methyl-6-{[4-(trifluoromethyl)pyridin-2-yl]amino}pyridin-2-yl)-1H-1,2,3-triazol-1-yl]propanamide] |
| 63.3 | Cc1cc(Nc2cc(C(F)(F)F)ccn2)nc(-c2cn(CC(O)C(O)COc3ccccc3Cl)nn2)c1 (stereo not drawn) [Example 10.8, 1-(2-chlorophenoxy)-4-[4-(4-methyl-6-{[4-(trifluoromethyl)pyridin-2-yl]amino}pyridin-2-yl)-1H-1,2,3-triazol-1-yl]butane-2,3-diol] |
| 64.7 | COCc1cc(Nc2nccc(C(F)(F)F)n2)cc(-c2cn(C[C@H](O)CO)nn2)c1 [Example 5.23, (2S)-3-{4-[3-(methoxymethyl)-5-{[4-(trifluoromethyl)pyrimidin-2-yl]amino}phenyl]-1H-1,2,3-triazol-1-yl}propane-1,2-diol] |
| 10.3 | Cc1cc(Nc2nccc(C(F)(F)F)n2)cc(-c2cn(CC(C)(O)CO)nn2)c1 (single isomer, unassigned) [Example 21.4, 2-methyl-3-[4-(3-methyl-5-{[4-(trifluoromethyl)pyrimidin-2-yl]amino}phenyl)-1H-1,2,3-triazol-1-yl]propane-1,2-diol] |
| 191 | Cc1cc(Nc2nccc(C)n2)cc(-c2cn(CC(C)(O)C(C)(C)O)nn2)c1 (stereo not drawn) [Example 21.21, 2,3-dimethyl-1-(4-{3-methyl-5-[(4-methylpyrimidin-2-yl)amino]phenyl}-1H-1,2,3-triazol-1-yl)butane-2,3-diol] |
| 166 | Cc1cc(Nc2cc(C(F)(F)F)ccn2)nc(-c2cn([C@H](C)C(=O)O)nn2)c1 [Example 5.29, (2R)-2-[4-(4-methyl-6-{[4-(trifluoromethyl)pyridin-2-yl]amino}pyridin-2-yl)-1H-1,2,3-triazol-1-yl]propanoic acid] |
| 33.1 | CCOC(=O)C(O)C(O)Cn1cc(-c2cc(C)cc(Nc3cc(C(F)(F)F)ccn3)n2)nn1 (stereo not drawn) [Example 10.9, ethyl 2,3-dihydroxy-4-[4-(4-methyl-6-{[4-(trifluoromethyl)pyridin-2-yl]amino}pyridin-2-yl)-1H-1,2,3-triazol-1-yl]butanoate] |
| 4 | Cc1cc(Nc2cc(C(F)(F)F)ccn2)nc(-c2cn(C[C@@H](O)CO)nn2)c1 [Example 5.19, (2R)-3-[4-(4-methyl-6-{[4-(trifluoromethyl)pyridin-2-yl]amino}pyridin-2-yl)-1H-1,2,3-triazol-1-yl]propane-1,2-diol] |
| 25.7 | Cc1cc(Nc2ncc(F)c(C(F)F)n2)cc(-c2cn(CC3OC(=O)NC3C)nn2)c1 (single isomer, unassigned) [Example 7.40, 5-{[4-(3-{[4-(difluoromethyl)-5-fluoropyrimidin-2-yl]amino}-5-methylphenyl)-1H-1,2,3-triazol-1-yl]methyl}-4-methyl-1,3-oxazolidin-2-one] |
| 18.8 | Cc1cc(Nc2cc(C(F)(F)F)ccn2)nc(-c2cn(CC(O)C(C)O)nn2)c1 (stereo not drawn) [Example 10.13, 1-[4-(4-methyl-6-{[4-(trifluoromethyl)pyridin-2-yl]amino}pyridin-2-yl)-1H-1,2,3-triazol-1-yl]butane-2,3-diol] |
| 5.7 | Cc1cc(Nc2cc(C(F)F)ccn2)nc(-c2cn(CC3CNCCO3)nn2)c1 (single isomer, unassigned) [Example 26.1, N-(4-(difluoromethyl)pyridin-2-yl)-4-methyl-6-(1-(morpholin-2-ylmethyl)-1H-1,2,3-triazol-4-yl)pyridin-2-amine] |
| 235 | Cc1ccnc(Nc2cc(C)cc(-c3cn(C[C@H](C)CO)nn3)n2)c1 [Example 5.16, (2S)-2-methyl-3-(4-{4-methyl-6-[(4-methylpyridin-2-yl)amino]pyridin-2-yl}-1H-1,2,3-triazol-1-yl)propan-1-ol] |
| 132 | Cc1cc(Nc2cc(OC3CCOC3)ccn2)nc(-c2cn(C(C)c3ccc(C(=O)O)cc3)nn2)c1 (stereo not drawn) [Example 2.5, 4-{1-[4-(4-methyl-6-{[4-(tetrahydrofuran-3-yloxy)pyridin-2-yl]amino}pyridin-2-yl)-1H-1,2,3-triazol-1-yl]ethyl}benzoic acid] |
| 8.1 | Cc1cc(Nc2cc(C(F)(F)F)ccn2)nc(-c2cn([C@H](C)c3ccc(C(=O)O)cc3)nn2)c1 [Example 9.5, 4-{(1R)-1-[4-(4-methyl-6-{[4-(trifluoromethyl)-pyridin-2-yl]amino}pyridin-2-yl)-1H-1,2,3-triazol-1-yl]ethyl}benzoic acid] |
| 4.4 | Cc1cc(Nc2nccc(C(F)(F)F)n2)cc(-c2cn(Cc3ccc(CC(=O)O)cc3)nn2)c1 [Example 5.2, (4-{[4-(3-methyl-5-{[4-(trifluoromethyl)pyrimidin-2-yl]amino}phenyl)-1H-1,2,3-triazol-1-yl]methyl}phenyl)acetic acid] |
| 19.7 | Cc1cc(Nc2nccc(C(F)F)n2)cc(-c2cn(C3CCCC(C)(O)C3O)nn2)c1 (single isomer, unassigned) [Example 29.1, 3-(4-(3-((4-(Difluoromethyl)pyrimidin-2-yl)amino)-5-methylphenyl)-1H-1,2,3-triazol-1-yl)-1-methylcyclohexane-1,2-diol] |
| 129 | Cc1cc(Nc2cc(C(F)(F)F)ccn2)nc(-c2cn(C[C@H]3CCC(=O)N3)nn2)c1 [Example 5.3, (5R)-5-{[4-(4-methyl-6-{[4-(trifluoromethyl)pyridin-2-yl]amino}pyridin-2-yl)-1H-1,2,3-triazol-1-yl]methyl}pyrrolidin-2-one] |
| 6.3 | Cc1cc(Nc2cc(C(F)(F)F)ccn2)nc(-c2cn(CC(O)c3ccc(C(N)=O)cc3)nn2)c1 (stereo not drawn) [Example 1.10, 4-{1-hydroxy-2-[4-(4-methyl-6-{[4-(trifluoromethyl)pyridin-2-yl]amino}pyridin-2-yl)-1H-1,2,3-triazol-1-yl]ethyl}benzamide] |
| 5.1 | Cc1cc(Nc2cc(C(F)(F)F)ccn2)nc(-c2cn(C(C(=O)O)c3ccccc3)nn2)c1 (stereo not drawn) [Example 3.11, [4-(4-methyl-6-{[4-(trifluoromethyl)pyridin-2-yl]amino}pyridin-2-yl)-1H-1,2,3-triazol-1-yl](phenyl)acetic acid] |
| 357 | Cc1cc(Nc2cc(C(F)(F)F)ccn2)nc(-c2cn(C(C)C(=O)NCCc3ccc4ccccc4c3)nn2)c1 (stereo not drawn) [Example 1.32, 2-[4-(4-methyl-6-{[4-(trifluoromethyl)pyridin-2-yl]amino}pyridin-2-yl)-1H-1,2,3-triazol-1-yl]-N-(2-naphthalen-2-ylethyl)propanamide] |
| 14.9 | COC(=O)C1(n2cc(-c3cc(C)cc(Nc4cc(C(F)(F)F)ccn4)n3)nn2)CC1 [Example 8.1, Methyl 1-[4-(4-methyl-6-{[4-(trifluoromethyl)pyridin-2-yl]amino}pyridin-2-yl)-1H-1,2,3-triazol-1-yl]cyclopropanecarboxylate] |
| 3.2 | Cc1cc(Nc2cc(C(F)(F)F)ccn2)nc(-c2cn(Cc3cnc(C)[nH]3)nn2)c1 [Example 5.104, 4-methyl-6-{1-[(2-methyl-1H-imidazol-5-yl)methyl]-1H-1,2,3-triazol-4-yl}-N-[4-(trifluoromethyl)pyridin-2-yl]pyridin-2-amine] |
| 3.3 | Cc1cc(Nc2cc(C(F)(F)F)ccn2)nc(-c2cn([C@@H](C)c3ccc(C(=O)O)cc3)nn2)c1 [Example 9.7, 4-{(1S)-1-[4-(4-methyl-6-{[4-(trifluoromethyl)pyridin-2-yl]amino}pyridin-2-yl)-1H-1,2,3-triazol-1-yl]ethyl}benzoic acid] |
| 71.8 | CCOC(=O)C1(n2cc(-c3cc(C)cc(Nc4cc(C(F)(F)F)ccn4)n3)nn2)CCC1 [Example 8.2, ethyl 1-[4-(4-methyl-6-{[4-(trifluoromethyl)-pyridin-2-yl]amino}-pyridin-2-yl)-1H-1,2,3-triazol-1-yl]cyclobutane-carboxylate] |

| SMILES | IC50 [nM] |
| --- | --- |
| COc1ccc2[nH]c3c(c2c1)CCN(C(=O)C(C)n1cc(-c2cc(C)cc(Nc4cc(C(F)(F)F)ccn4)n2)nn1)C3 (stereo not drawn) [Example 1.48, 6-{1-[2-(6-methoxy-1,3,4,9-tetrahydro-2H-beta-carbolin-2-yl)-1-methyl-2-oxoethyl]-1H-1,2,3-triazol-4-yl}-4-methyl-N-1.[4-(trifluoromethyl)pyridin-2-yl]pyridin-2-amine] | 257 |
